According to patent US20090298825A1, “Bicycloheteroaryl Compounds as P2x7 Modulators and Uses Thereof” (priority 2006, published 2009):

Columns and labels:
[1] = Half-life in human liver microsomes (HLM); format: in vitro ADME; settings: pH 7.4, 1 μM compound, 0.78 mg/mL HLM, NADPH, 37° C.
Description: Test compounds (1 μM) are incubated with 3.3 mM MgCl2 and 0.78 mg/mL HLM (HL101) in 100 mM potassium phosphate buffer (pH 7.4) at 37° C. on the 96-deep well plate. The reaction mixture is split into two groups, a non-P450 and a P450 group. NADPH is only added to the reaction mixture of the P450 group. An aliquot of samples of P450 group is collected at 0, 10, 30, and 60 min time point, where 0 min time point indicated the time when NADPH is added into the reaction mixture of P450 group. An aliquot of samples of non-P450 group is collected at −10 and 65 min time point. Collected aliquots are extracted with acetonitrile solution containing an internal standard. The precipitated protein is spun down in centrifuge (2000 rpm, 15 min). The compound concentration in supernatant is measured by LC/MS/MS system.
The half-life value is obtained by plotting the natural logarithm of the peak area ratio of compounds/internal standard versus time. The slope of the line of best fit through the points yields the rate of metabolism (k).

P2X7 receptor = target: T1, P2X7 receptor (Homo sapiens, UniProt Q99572); assay: IL-1β release assay in differentiated THP-1 cells stimulated with BzATP (Example 9); format: cell-based; settings: for inhibition at 0.3 µM: 0.3 μM concentration, read-out: IL-1β % Inhib. @ 0.3 or 0.1 μM; for IC50: four parameter logistic fit, read-out: IL-1β IC50
T1 construct: endogenous in cells; host or cells: THP-1 cells differentiated with LPS and IFN-γ
T1 sequence (Q99572 1-595): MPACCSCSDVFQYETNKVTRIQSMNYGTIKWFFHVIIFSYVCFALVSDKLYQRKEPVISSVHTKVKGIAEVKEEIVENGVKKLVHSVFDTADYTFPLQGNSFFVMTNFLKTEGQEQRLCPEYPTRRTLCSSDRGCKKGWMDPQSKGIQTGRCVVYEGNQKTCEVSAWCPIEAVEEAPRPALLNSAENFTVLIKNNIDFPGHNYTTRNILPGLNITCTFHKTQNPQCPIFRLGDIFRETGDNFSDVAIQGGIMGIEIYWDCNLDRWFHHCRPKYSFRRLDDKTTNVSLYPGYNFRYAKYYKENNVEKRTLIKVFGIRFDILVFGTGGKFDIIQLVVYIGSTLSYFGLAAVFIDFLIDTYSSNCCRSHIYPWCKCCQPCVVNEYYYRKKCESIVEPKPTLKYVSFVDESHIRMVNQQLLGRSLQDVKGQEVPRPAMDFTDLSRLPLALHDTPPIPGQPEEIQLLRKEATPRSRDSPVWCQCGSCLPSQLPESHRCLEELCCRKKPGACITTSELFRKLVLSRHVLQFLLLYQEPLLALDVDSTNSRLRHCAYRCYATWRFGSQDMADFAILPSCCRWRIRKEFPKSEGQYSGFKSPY
Summary of the method: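 Differentiated THP-1 cells pretreated 30 min with compound, then stimulated with BzATP. Released IL-1β in supernatant measured by ELISA; background-adjusted percent inhibition fitted to four-parameter logistic for IC50.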

SMILES | half-life at 1 μM [1] | inhibition at 0.3 µM (P2X7 receptor) | IC50 (P2X7 receptor)
Cc1ccc(-n2ccc3c(NC(=O)CC45CC6CC(CC(C6)C4)C5)cccc3c2=O)cn1 [ID 715] | 0.42 h | > 76% | 4.02 nM
O=C(Cc1ccc(Cl)c(C(F)(F)F)c1)Nc1cccc2c(=O)n(C3CCNC3)ccc12 (centres unmarked) [ID 814] | 2.88 h | > 76% | 15.9 nM
O=C(Cc1ccc(Cl)c(C(F)(F)F)c1)Nc1cccc2c(=O)n([C@H]3CCNC3)ccc12 [ID 825] | 4.27 h | > 76% | 16.4 nM
O=C(Cc1ccc(Cl)c(C(F)(F)F)c1)Nc1cccc2c(=O)n(C3CNCC3O)ccc12 (centres unmarked) [ID 826] | 1.85 h | > 76% | 2.44 nM
O=C(CC1CCCCCC1)Nc1cccc2c(=O)n(C3CNCC3O)ccc12 (centres unmarked) [ID 828] | 1.38 h | > 76% | 6.87 nM
C[C@H](C(=O)Nc1cccc2c(=O)n(C3CNCC3O)ccc12)c1ccc(Cl)cc1 (some centres unmarked) [ID 829] | 1.54 h | > 76% | 19.9 nM
CC1(C)CC(CC(=O)Nc2cccc3c(=O)n([C@@H]4CCNC4)ccc23)CC(C)(C)C1 [ID 830] | 5.59 h | > 76% | 
C[C@@H](C(=O)Nc1cccc2c(=O)n([C@H]3CCNC3)ccc12)c1ccc(Cl)c(Cl)c1 [ID 833] | 3.62 h | > 76% | 35 nM
COc1ncccc1-n1ccc2c(NC(=O)Cc3ccc(Cl)c(C(F)(F)F)c3)cccc2c1=O [ID 847] | 0.22 h | > 76% | 9.37 nM
Cc1ncccc1-n1ccc2c(NC(=O)Cc3ccc(C(F)(F)F)c(F)c3)cccc2c1=O [ID 855] | 0.73 h | > 76% | 11 nM
Cc1ncccc1-n1ccc2c(NC(=O)Cc3ccc(Cl)c(C(F)(F)F)c3)cccc2c1=O [ID 861] | 0.49 h | > 76% | 4 nM
O=C(Cc1ccc(C(F)(F)F)c(F)c1)Nc1cccc2c(=O)n(-c3cccnc3F)ccc12 [ID 871] | 1.08 h | > 76% | 8.72 nM
O=C(Cc1ccc(Cl)cc1F)Nc1cccc2c(=O)n(C3CC3)ccc12 [ID 883] | 0.54 h | > 76% | 14.7 nM
O=C(Cc1ccc(F)c(C(F)(F)F)c1)Nc1cccc2c(=O)n(C3CC3)ccc12 [ID 884] | 0.77 h | > 76% | 5.37 nM
O=C(Cc1cccc(C(F)(F)F)c1F)Nc1cccc2c(=O)n(C3CC3)ccc12 [ID 885] |  | > 76% | 0.322 nM
O=C(Cc1cccc(C(F)(F)F)c1F)Nc1cccc2c(=O)n(C3CCC3)ccc12 [ID 886] |  | > 76% | 20.3 nM
O=C(Cc1ccc(C(F)(F)F)cc1F)Nc1cccc2c(=O)n(C3CCC3)ccc12 [ID 887] |  | > 76% | 28.5 nM
O=C(Cc1ccc(Cl)cc1F)Nc1cccc2c(=O)n(C3CCC3)ccc12 [ID 888] |  | > 76% | 14.4 nM
O=C(CC12CC3CC(CC(C3)C1)C2)Nc1cccc2c(=O)n(C3CC3)ccc12 [ID 889] |  | > 76% | 0.777 nM
O=C(Cc1ccc(Cl)c(C(F)(F)F)c1)Nc1cccc2c(=O)n(C3CC3)ccc12 [ID 890] |  | > 76% | 4.33 nM
O=C(Cc1ccc(C(F)(F)F)cc1)Nc1cccc2c(=O)n(C3CCC3)ccc12 [ID 891] |  | 51 to 75% | 283 nM
O=C(Cc1ccc(C(F)(F)F)c(F)c1)Nc1cccc2c(=O)n(C3CCC3)ccc12 [ID 892] |  | > 76% | 22.1 nM
O=C(Cc1ccc(F)c(Cl)c1)Nc1cccc2c(=O)n(C3CCC3)ccc12 [ID 893] |  | > 76% | 48.3 nM
C[C@H](C(=O)Nc1cccc2c(=O)n(C3CC3)ccc12)c1ccc(Cl)cc1 [ID 894] |  | > 76% | 31.9 nM
O=C(Cc1ccc(Cl)c(F)c1)Nc1cccc2c(=O)n(C3CCC3)ccc12 [ID 897] |  | > 76% | 24.5 nM
O=C(Cc1ccc(Cl)c(Cl)c1)Nc1cccc2c(=O)n(C3CCC3)ccc12 [ID 898] |  | > 76% | 23.6 nM
O=C(Cc1ccc(Cl)c(C(F)(F)F)c1)Nc1cccc2c(=O)n(C3CCC3)ccc12 [ID 899] |  | > 76% | 6.19 nM
Cc1ccc2c(=O)n([C@H]3CCNC3)ccc2c1NC(=O)Cc1ccc(C(F)(F)F)c(F)c1 [ID 900] |  | > 76% | 40.2 nM
Cc1ccc2c(=O)n([C@H]3CCNC3)ccc2c1NC(=O)Cc1ccc(F)c(C(F)(F)F)c1 [ID 901] |  | > 76% | 11 nM
